Measurements reported in patent publication US20250129095A1, “ANNULATED 2-AMINO-3-CYANO THIOPHENES AND DERIVATIVES FOR THE TREATMENT OF CANCER” (Boehringer Ingelheim Int'l GmbH Corp., priority 2021, published 2025).

Columns and labels:
[1] = tested on: NCI-H358 cells; assay: NCI-H358 CTG proliferation assay (120 h) (NSCLC, G12C); format: cell-based; conditions: Homo sapiens
Method: Additional Proliferation Assays with Mutant Cancer Cell Lines • NCI-H358 CTG proliferation assay (120 h) (NSCLC, G12C)
NCI-H358 cells (ATCC No. CRL-5807) are dispensed into black 384-well plates, flat and clear bottom (Greiner, PNr. 781091) at a density of 200 cells per well in 60 μl RPMI-1640 ATCC-Formulation (Gibco #A10491)+10% FCS (fetal calf serum). […] For the TO time point measurement, untreated cells are analyzed at the time of compound addition. Plates are incubated for 120 h, and cell viability is measured using CellTiter-Glo luminescent cell viability reagent (Promega product code G7570). Viability (stated as percent of control) is defined as relative luminescence units RLU of each well divided by the RLU of cells in DMSO controls.

[2] = biological target: T1, KRAS (G12C)::SOS1 (Homo sapiens, UniProt P01116, C118S/C51S/C80L/G12C); assay: KRAS::SOS1 AlphaScreen binding assay, KRAS G12C; conditions: read-out: KRASG12C IC50
T1 construct: KRAS (G12C) 1-169, N-terminal 6His-tag for purification, cleaved off; 6His-tag (N, cleaved yes); made in house
T1 sequence (P01116 1-169 isoform P01116-2 G12C/C51S/C80L/C118S): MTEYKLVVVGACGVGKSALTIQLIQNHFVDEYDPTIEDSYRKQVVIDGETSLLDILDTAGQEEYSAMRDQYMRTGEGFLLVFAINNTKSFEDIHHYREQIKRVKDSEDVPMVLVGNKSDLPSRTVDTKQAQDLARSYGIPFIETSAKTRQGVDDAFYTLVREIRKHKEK
Text: This assay can be used to examine the potency with which compounds according to the invention binding to (mutated) KRAS inhibit the protein-protein interaction between SOS1 and (mutated) KRAS e.g., KRAS WT, KRAS G12C, KRAS G12D, KRAS G12V, KRAS G13D. […] Low IC50 values in this assay setting are indicative of strong inhibition of protein-protein interaction between SOS1 and KRAS:
These assays measure the inhibitory effect of compounds on KRAS mutant protein-protein interactions using the Alpha Screen technology by Perkin Elmer
The following (mutant) enzyme forms of KRAS and interacting proteins are used in these assays at the given concentrations: • KRAS (G12D) 1-169, N-terminal 6His-tag, C-terminal avi-tag (Xtal BioStructures, Inc.); final assay concentration 10 nM and SOS1 564-1049, N-terminal 229 GST-tag, TEV cleavage site (Viva Biotech Ltd); final assay concentration 5 nM; • KRAS (G12C) 1-169, N-terminal 6His-tag for purification, cleaved off, C-terminal avi-tag, biotinylated, mutations: C51S, C80L, C118S (in house); final assay concentration 7.5 nM and SOS1 564-1049, N-terminal 229 GST-tag, TEV cleavage site (Viva Biotech Ltd); final assay concentration 5 nM; • KRAS (G12V) 1-169, N-terminal 6His-tag for purification, cleaved off, C-terminal avi-tag, biotinylated, TEV cleavage site, mutation: C118S, GDP loaded (in house); final assay concentration 10 nM and SOS1 564-1049, N-terminal 229 GST-tag, TEV cleavage site (Viva Biotech Ltd); final assay concentration 10 nM; • KRAS (G13D) 1-169, N-terminal 6His-tag for purification, cleaved off, C-terminal avi-tag, biotinylated, TEV cleavage site, mutation: C118S, GDP loaded (in house); final assay concentration 10 nM and SOS1 564-1049, N-terminal 229 GST-tag, TEV cleavage site (Viva Biotech Ltd); final assay concentration 10 nM; • KRAS (WT) 1-169, N-terminal 6His-tag for purification, cleaved off, C-terminal avi-tag, biotinylated, TEV cleavage site, mutation: C118S, GDP loaded (in house); final assay concentration 10 nM and SOS1 564-1049, N-terminal 229 GST-tag, TEV cleavage site (Viva Biotech Ltd); final assay concentration 10 nM.
Test compounds dissolved in DMSO are dispensed onto assay plates (Proxiplate 384 PLUS, white, PerkinElmer; 6008289) using an Access Labcyte Workstation with the Labcyte Echo 55×. For the chosen highest assay concentration of 100 μM, 150 nL of compound solution are transferred from a 10 mM DMSO compound stock solution. A series of eleven fivefold dilutions per compound are transferred to the assay plate, compound dilutions are tested in duplicates. DMSO are added as backfill to a total volume of 150 nL.
The assays run on a fully automated robotic system in a darkened room below 100 Lux. To 150 nl of compound dilution 10 μl of a mix including KRAS mutant protein, SOS1 (final assay concentrations see above) and GDP nucleotide (Sigma G7127; final assay concentration 10 μM) in assay buffer (1×PBS, 0.1% BSA, 0.05% Tween 20) are added into columns 1-24.
After 30 minutes incubation time 5 μl of Alpha Screen bead mix in assay buffer are added into columns 1-23. Bead mix consists of AlphaLISA Glutathione Acceptor Beads (PerkinElmer, Cat No AL109) and AlphaScreen Streptavidin Donor Beads (PerkinElmer Cat No 6760002) in assay buffer at a final assay concentration of 10 μg/ml each.
Plates are kept at room temperature in a darkened incubator. After an additional 60 minutes incubation time the signal is measured in a PerkinElmer Envision HTS Multilabel Reader using the AlphaScreen specs from PerkinElmer.
Each plate contains up to 16 wells of a negative control depending on the dilution procedure (platewise or serial) (DMSO instead of test compound; with KRAS mutant::SOS1 GDP mix and bead mix; column 23) and 16wells of a positive control (DMSO instead of test compound; with KRAS mutant::SOS1 GDP mix w/o bead mix; column 24).
As internal control known inhibitors of KRAS mutant::SOS1 interaction can be measured on each compound plate. […]

[3] = tested on: SAS cells; assay: SAS CTG proliferation assay (120 h) (HNSCC, wt amplified); format: cell-based
Method: SAS cells (JCRB0260) are dispensed into 384-well plates, flat and clear bottom (Greiner, PNr. 781091) at a density of 300 cells per well in 60 μL DMEM:F12 (Gibco 31330-038)+10% Fetal Calf Serum (HyClone, PNr.: SH30084.03) and incubated at 37° C. in a CO2 incubator overnight The next day, compounds (10 mM stock in DMSO) are added with the ECHO acoustic liquid handler system (Beckman Coulter), including DMSO controls. Plates are incubated for 120 h, and cell viability is measured using CellTiter-Glo luminescent cell viability reagent (Promega product code G7570). Viability (stated as percent of control) is defined as relative luminescence units RLU of each well divided by the RLU of cells in DMSO controls.

| Compound | IC50 [1] | IC50 [2] | IC50 [3] |
| --- | --- | --- | --- |
| C[C@H](Oc1cc(Nc2cccnn2)nc(-c2noc3c2CCC[C@@]32CCCc3sc(N)c(C#N)c32)n1)[C@@H]1CCCN1C [II-18] | 430 nM | 2 nM | 171 nM |
| C[C@H](Oc1cc(O[C@H]2CN(C)C(C)(C)C2)nc(-c2noc3c2CCC[C@@]32CCCc3sc(N)c(C#N)c32)n1)[C@@H]1CCCN1C [II-19] | 3270 nM | 4 nM | 297 nM |
| C[C@H]1CN(C)CCCN1c1cc(O[C@@H]2CNC2(C)C)nc(-c2noc3c2CCC[C@@]32CCCc3sc(N)c(C#N)c32)n1 [II-28] | 952 nM | 6 nM | 4450 nM |
| C[C@H](Oc1cc(O[C@@H]2CNC[C@@H]2F)nc(-c2noc3c2CCC[C@@]32CCCc3sc(N)c(C#N)c32)n1)[C@@H]1CCCN1C [II-29] | 36 nM | 2 nM | 1050 nM |
| CO[C@@H]1C[C@@H]([C@H](C)Oc2cc(O[C@@H]3CNC3(C)C)nc(-c3noc4c3CCC[C@@]43CCCc4sc(N)c(C#N)c43)n2)N(C)C1 [II-30] | 85 nM | 1 nM | 267 nM |
| C[C@H](Oc1cc(O[C@@H]2CNC2(C)C)nc(-c2noc3c2CCC[C@@]32CCCc3sc(N)c(C#N)c32)n1)[C@@H]1C[C@@H](F)CN1C [II-31] | 119 nM | 1 nM | 402 nM |
